Assay results: patent publication US20060247323A1, “Stabilisation of light sensitive substances” (priority 2000, published 2006)

Tested on: cockroaches
Test: Biological knockdown of cockroaches on glass plates sprayed with diluted d-phenothrin emulsions I, J and neat d-phenothrin
Format: in vivo
Settings: 30 mg active pesticide/m^2
Protocol: Samples of the emulsions I and J and neat d-phenothrin are diluted in water and sprayed onto a glass plates to give a concentration of 30 mg active pesticide/m^2. The samples are tested for biological knockdown of cockroaches for 15 minute and 24 hour exposure on the plates and the effectiveness of the pesticide on the treated plates monitored periodically under light and dark conditions. The results of the tests conducted in daylight are shown in Table 3. and those conducted in the dark are shown Table 4.

[1] = daylight, 7 days after application to plates
[2] = daylight, 14 days after application to plates
[3] = daylight, 21 days after application to plates
[4] = daylight, 49 days after application to plates
[5] = daylight, 63 days after application to plates
[6] = daylight, 91 days after application to plates

## CC(C)=CC1C(C(=O)OCc2cccc(Oc3ccccc3)c2)C1(C)C (stereo not drawn) [phenothrin, d-phenothrin]
dark, 1 day after application to plates
  % Kill after 15 minute exposure: 100%
dark, 7 days after application to plates
  % Kill after 15 minute exposure: 100%
dark, 14 days after application to plates
  % Kill after 15 minute exposure: 100%
dark, 21 days after application to plates
  % Kill after 15 minute exposure: 100%
dark, 49 days after application to plates
  % Kill after 15 minute exposure: 100%
dark, 63 days after application to plates
  % Kill after 15 minute exposure: 100%
dark, 91 days after application to plates
  % Kill after 15 minute exposure: 100%
daylight, 1 day after application to plates
  % Kill after 15 minute exposure: 100%
[1]
  % Kill after 15 minute exposure: 0%
  % Kill after 24 hour exposure (in brackets): 10%
[2]
  % Kill after 15 minute exposure: 0 (0) %
  % Kill after 24 hour exposure (in brackets): 0 (0) %
[3]
  % Kill after 15 minute exposure: 10%
  % Kill after 24 hour exposure (in brackets): 0%
[4]
  % Kill after 15 minute exposure: 10 (10) %
  % Kill after 24 hour exposure (in brackets): 10 (10) %
[5]
  % Kill after 15 minute exposure: 10%
  % Kill after 24 hour exposure (in brackets): 40%
[6]
  % Kill after 15 minute exposure: 0 (0) %
  % Kill after 24 hour exposure (in brackets): 0 (0) %
